Experimental data reported in patent US20130035326A1 (AMBIT BIOSCIENCES CORPORATION, priority 2009, published 2013).

Key:
[1] = system: MV4-11 cells; experiment: MV4-11 cell proliferation assay (Alamar Blue); format: cell-based; details: Homo sapiens, MV4-11, 72 h, 3 days incubation
Method in brief: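 Flt3-ITD MV4-11 cells were serum-starved overnight in Iscove's with 0.5% FBS, then given compound at 9 half-log concentrations (0.5% DMSO) for 3 days at 37° C. Alamar Blue reduction was read after 3 h by fluorescence (560/590 nm). IC50 is the mean of duplicates versus negative control.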

[2] = target: T1, KIT kinase (Homo sapiens, UniProt P10721); experiment: Competition binding assay, KIT Kd
T1 construct: made in house; host or cells: T7 phage display or HEK-293 cells
T1 sequence (P10721 26-976): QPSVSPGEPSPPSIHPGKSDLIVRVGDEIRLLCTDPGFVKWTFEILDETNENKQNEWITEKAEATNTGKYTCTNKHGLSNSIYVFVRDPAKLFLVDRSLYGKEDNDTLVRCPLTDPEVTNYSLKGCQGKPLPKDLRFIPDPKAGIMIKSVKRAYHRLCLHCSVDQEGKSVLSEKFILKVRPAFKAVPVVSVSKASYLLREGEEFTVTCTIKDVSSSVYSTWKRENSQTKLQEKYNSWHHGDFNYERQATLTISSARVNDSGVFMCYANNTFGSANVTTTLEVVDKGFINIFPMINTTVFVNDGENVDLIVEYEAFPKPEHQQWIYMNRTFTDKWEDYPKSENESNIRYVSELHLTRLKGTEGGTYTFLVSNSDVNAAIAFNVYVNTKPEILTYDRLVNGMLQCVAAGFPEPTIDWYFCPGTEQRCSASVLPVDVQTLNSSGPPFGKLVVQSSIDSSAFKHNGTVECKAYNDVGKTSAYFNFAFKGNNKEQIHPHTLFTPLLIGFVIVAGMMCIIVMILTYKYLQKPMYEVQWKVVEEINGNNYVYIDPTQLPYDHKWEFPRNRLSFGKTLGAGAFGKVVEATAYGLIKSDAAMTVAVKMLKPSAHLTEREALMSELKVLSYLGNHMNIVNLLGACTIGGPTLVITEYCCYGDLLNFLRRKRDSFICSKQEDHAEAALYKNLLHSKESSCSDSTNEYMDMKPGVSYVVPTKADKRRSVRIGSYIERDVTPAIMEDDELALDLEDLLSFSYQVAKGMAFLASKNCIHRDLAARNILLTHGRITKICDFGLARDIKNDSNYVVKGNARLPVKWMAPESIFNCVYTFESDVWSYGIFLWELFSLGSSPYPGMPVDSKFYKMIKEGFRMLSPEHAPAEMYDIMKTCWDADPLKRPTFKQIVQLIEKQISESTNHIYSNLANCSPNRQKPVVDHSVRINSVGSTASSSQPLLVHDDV
Method in brief: (§1)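 Steps: biotinylated ligand loaded on streptavidin magnetic beads 30 min; beads blocked with biotin; kinase, beads and compound combined 1 hour at room temperature; beads washed, eluted 30 min with 0.5 μM free ligand; eluted kinase measured by quantitative PCR. Kd derived from eleven-point threefold dilutions.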

[3] = target: kinase panel containing either 359 or 386 distinct kinases; experiment: Selectivity score S10 from competition binding against a panel of kinases; details: compounds at 10 μM; panel of 386 distinct kinases
Method in brief: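 Compounds were tested at 10 μM in competition binding against T7 phage-fused or HEK-293-expressed DNA-tagged kinases with immobilized affinity ligands, 1 h at room temperature. Bound kinase was quantified by qPCR as percent of DMSO control; S10 is the fraction of distinct kinases (mutants excluded) with POC below 10.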

[4] = target: T2, CSF-1R kinase (Homo sapiens, UniProt P07333); experiment: Competition binding assay, CSF-1R Kd
T2 construct: made in house; host or cells: T7 phage display or HEK-293 cells
T2 sequence (P07333 20-972): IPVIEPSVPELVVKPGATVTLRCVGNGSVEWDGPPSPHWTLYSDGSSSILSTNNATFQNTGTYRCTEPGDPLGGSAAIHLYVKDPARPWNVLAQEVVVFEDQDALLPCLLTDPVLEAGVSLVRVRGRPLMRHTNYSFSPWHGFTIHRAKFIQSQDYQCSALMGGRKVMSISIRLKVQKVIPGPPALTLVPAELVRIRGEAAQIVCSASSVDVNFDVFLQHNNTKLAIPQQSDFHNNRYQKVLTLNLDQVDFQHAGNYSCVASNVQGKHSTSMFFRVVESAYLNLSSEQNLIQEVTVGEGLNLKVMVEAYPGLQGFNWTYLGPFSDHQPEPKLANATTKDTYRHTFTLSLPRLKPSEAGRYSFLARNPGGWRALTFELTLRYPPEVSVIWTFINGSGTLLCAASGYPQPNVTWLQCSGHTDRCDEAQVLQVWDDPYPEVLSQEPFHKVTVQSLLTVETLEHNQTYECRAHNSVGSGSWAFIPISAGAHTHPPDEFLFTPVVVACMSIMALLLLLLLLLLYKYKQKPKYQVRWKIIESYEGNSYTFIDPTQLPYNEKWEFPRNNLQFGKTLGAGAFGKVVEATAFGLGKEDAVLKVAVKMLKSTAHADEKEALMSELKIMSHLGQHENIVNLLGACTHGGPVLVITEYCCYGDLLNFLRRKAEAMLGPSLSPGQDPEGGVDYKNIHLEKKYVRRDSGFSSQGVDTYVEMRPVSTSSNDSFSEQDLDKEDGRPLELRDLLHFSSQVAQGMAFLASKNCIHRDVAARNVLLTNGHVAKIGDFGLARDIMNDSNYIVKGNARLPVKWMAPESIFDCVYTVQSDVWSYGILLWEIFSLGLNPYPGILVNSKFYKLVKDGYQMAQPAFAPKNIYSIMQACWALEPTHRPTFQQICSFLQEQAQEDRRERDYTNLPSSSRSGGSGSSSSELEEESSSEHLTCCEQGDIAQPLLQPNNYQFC
Method in brief: as §1

[5] = target: T3, FLT3 kinase (Homo sapiens, UniProt P36888); experiment: Competition binding assay, FLT3 Kd
T3 construct: made in house; host or cells: T7 phage display or HEK-293 cells
T3 sequence (P36888 27-993): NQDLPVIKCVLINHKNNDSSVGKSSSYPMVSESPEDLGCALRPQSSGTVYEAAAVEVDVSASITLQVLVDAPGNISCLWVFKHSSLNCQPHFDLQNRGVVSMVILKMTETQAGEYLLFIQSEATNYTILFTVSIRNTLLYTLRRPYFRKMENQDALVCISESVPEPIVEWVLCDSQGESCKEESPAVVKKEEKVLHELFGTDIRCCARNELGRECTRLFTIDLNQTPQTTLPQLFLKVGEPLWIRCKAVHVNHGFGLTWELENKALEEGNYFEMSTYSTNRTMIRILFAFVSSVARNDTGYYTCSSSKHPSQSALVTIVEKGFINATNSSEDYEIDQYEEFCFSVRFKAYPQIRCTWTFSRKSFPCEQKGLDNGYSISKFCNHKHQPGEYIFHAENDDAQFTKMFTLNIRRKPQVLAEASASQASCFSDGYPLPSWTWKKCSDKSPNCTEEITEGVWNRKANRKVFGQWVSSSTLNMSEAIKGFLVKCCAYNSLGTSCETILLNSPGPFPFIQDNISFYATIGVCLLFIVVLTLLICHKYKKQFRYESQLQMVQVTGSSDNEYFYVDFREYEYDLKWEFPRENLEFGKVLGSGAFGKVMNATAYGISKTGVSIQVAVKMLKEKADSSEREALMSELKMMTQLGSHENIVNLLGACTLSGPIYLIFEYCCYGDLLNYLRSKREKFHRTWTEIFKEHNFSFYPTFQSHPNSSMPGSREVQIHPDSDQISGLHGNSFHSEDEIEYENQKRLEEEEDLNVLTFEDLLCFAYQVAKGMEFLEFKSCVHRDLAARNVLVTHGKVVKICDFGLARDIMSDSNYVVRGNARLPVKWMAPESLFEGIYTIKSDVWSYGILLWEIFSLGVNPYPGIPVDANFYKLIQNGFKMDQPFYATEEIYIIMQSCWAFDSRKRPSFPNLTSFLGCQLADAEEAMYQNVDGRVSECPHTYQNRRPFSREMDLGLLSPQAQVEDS
Method in brief: as §1

Compound | IC50 [1] | Kd [2] | Kinase specificty: S(10)-386 panel [3] | Kd [4] | Kd [5]
CS(=O)(=O)O.Nc1ccc(-c2ccc(CC(=O)Nn3cc(C(F)(F)F)cn3)cc2)cn1 [Example 126, 5-(4-(2-oxo-2-(4-(trifluoromethyl)-1H-pyrazol-1-ylamino)ethyl)phenyl)pyridin-2-aminium methanesulfonate] | 10 to 100 nM | 1 to 10 nM | A (A≦0.1) | 10 to 100 nM | ≤ 1 nM
CC1(c2cc(NC(=O)Cc3ccc(-c4cnc(N)c(Cl)c4)cc3)no2)COC1.CS(=O)(=O)O [Example 128, 3-chloro-5-(4-(2-((5-(3-methyloxetan-3-yl)isoxazol-3-yl)amino)-2-oxoethyl)phenyl)pyridin-2-aminium methanesulfonate] | 1 to 10 nM | 1 to 10 nM | B (0.1<B≦0.2 nM) | ≤ 10 nM | ≤ 1 nM
COc1nc(N)ccc1-c1ccc(CC(=O)Nc2cc(C(C)(C)C)on2)cc1.CS(=O)(=O)O [Example 131, 5-(4-(2-(5-tert-butylisoxazol-3-ylamino)-2-oxoethyl)phenyl)-6-methoxypyridin-2-aminium methanesulfonate] | 100 to 500 nM | 10 to 100 nM | A (A≦0.1) | > 500 nM | 1 to 10 nM
CC(C)(C)c1cc(NC(=O)Cc2ccc(-c3ccc(N)nc3Cl)cc2)no1.CS(=O)(=O)O [Example 132, 5-(4-(2-(5-tert-butylisoxazol-3-ylamino)-2-oxoethyl)phenyl)-6-chloropyridin-2-aminium methanesulfonate] | 1 to 10 nM | 1 to 10 nM | A (A≦0.1) | ≤ 10 nM | ≤ 1 nM
CS(=O)(=O)O.Nc1ncc(-c2ccc(CC(=O)Nc3cc(C4(C(F)(F)F)CC4)on3)cc2)cc1Cl [Example 133, 3-chloro-5-(4-(2-oxo-2-(5-(1-(trifluoromethyl)cyclopropyl)isoxazol-3-ylamino)ethyl)phenyl)pyridin-2-aminium methanesulfonate] | ≤ 1 nM | 1 to 10 nM | B (0.1<B≦0.2 nM) | ≤ 10 nM | ≤ 1 nM
CC1(c2cc(NC(=O)Cc3ccc(-c4ccc(N)nc4F)cc3)no2)CC1 [Example 134, 2-(4-(6-amino-2-fluoropyridin-3-yl)phenyl)-N-(5-(1-methylcyclopropyl)isoxazol-3-yl)acetamide] | 1 to 10 nM | ≤ 1 nM | A (A≦0.1) | ≤ 10 nM | ≤ 1 nM
CC1(c2cc(NC(=O)Cc3ccc(-c4cnc(N)c(C(F)(F)F)c4)cc3)no2)COC1.CS(=O)(=O)O [Example 135, 5-(4-(2-((5-(3-methyloxetan-3-yl)isoxazol-3-yl)amino)-2-oxoethyl)phenyl)-3-(trifluoromethyl)pyridin-2-aminium methanesulfonate] | 1 to 10 nM | 1 to 10 nM | B (0.1<B≦0.2 nM) | ≤ 10 nM | ≤ 1 nM
COc1cc(-c2ccc(CC(=O)Nc3cc(C(C)(C)C)on3)cc2)cnc1N.CS(=O)(=O)O [Example 136, 5-(4-(2-(5-tert-butylisoxazol-3-ylamino)-2-oxoethyl)phenyl)-3-methoxypyridin-2-aminium methanesulfonate] | ≤ 1 nM | 1 to 10 nM | B (0.1<B≦0.2 nM) | ≤ 10 nM | ≤ 1 nM
CS(=O)(=O)O.Nc1ccc(-c2ccc(CC(=O)Nc3cc(C4(C(F)(F)F)CC4)on3)cc2)c(F)n1 [Example 137, 6-fluoro-5-(4-(2-oxo-2-(5-(1-(trifluoromethyl)cyclopropyl)isoxazol-3-ylamino)ethyl)phenyl)pyridin-2-aminium methanesulfonate] | ≤ 1 nM | 1 to 10 nM | A (A≦0.1) | 10 to 100 nM | ≤ 1 nM
CC1(c2cc(NC(=O)Cc3ccc(-c4cnc(N)c(F)c4)cc3)no2)CC1.CS(=O)(=O)O [Example 138, 3-fluoro-5-(4-(2-(5-(1-methylcyclopropyl)isoxazol-3-ylamino)-2-oxoethyl)phenyl)pyridin-2-aminium methanesulfonate] | ≤ 1 nM | ≤ 1 nM | B (0.1<B≦0.2 nM) | ≤ 10 nM | ≤ 1 nM
CS(=O)(=O)O.Nc1ccc(-c2ccc(CC(=O)Nc3cc(C4(C(F)(F)F)CC4)on3)c(F)c2)cn1 [Example 139, 5-(3-fluoro-4-(2-oxo-2-(5-(1-(trifluoromethyl)cyclopropyl)isoxazol-3-ylamino)ethyl)phenyl)pyridin-2-aminium methanesulfonate] | ≤ 1 nM | 1 to 10 nM | B (0.1<B≦0.2 nM) | ≤ 10 nM | ≤ 1 nM
CC1(c2cc(NC(=O)Cc3ccc(-c4ccc(N)nc4F)cc3)no2)COC1 [Example 140, 2-(4-(6-amino-2-fluoropyridin-3-yl)phenyl)-N-(5-(3-methyloxetan-3-yl)isoxazol-3-yl)acetamide] | 10 to 100 nM | 1 to 10 nM | A (A≦0.1) | ≤ 10 nM | ≤ 1 nM
CC(C)(C)c1cc(NC(=O)Cc2ccc(-c3cnc4[nH]c(=O)oc4c3)cc2)no1 [Example 141, N-(5-tert-butylisoxazol-3-yl)-2-(4-(2-oxo-2,3-dihydrooxazolo[4,5-b]pyridin-6-yl)phenyl)acetamide] | 1 to 10 nM | 1 to 10 nM | B (0.1<B≦0.2 nM) | 10 to 100 nM | 1 to 10 nM
CC(C)(c1cc(NC(=O)Cc2ccc(-c3ccc(N)nc3F)cc2)no1)C(F)(F)F.CS(=O)(=O)O [Example 142, 6-fluoro-5-(4-(2-oxo-2-(5-(1,1,1-trifluoro-2-methylpropan-2-yl)isoxazol-3-ylamino)ethyl)phenyl)pyridin-2-aminium methanesulfonate] | ≤ 1 nM | 1 to 10 nM | A (A≦0.1) | ≤ 10 nM | ≤ 1 nM
CS(=O)(=O)O.Nc1ccc(-c2ccc(CC(=O)Nc3cc(C4CCC4)no3)cc2)cn1 [Example 143, 5-(4-(2-((3-cyclobutylisoxazol-5-yl)amino)-2-oxoethyl)phenyl)pyridin-2-aminium methanesulfonate] | 1 to 10 nM | ≤ 1 nM | A (A≦0.1) | ≤ 10 nM | ≤ 1 nM
CC1(c2cc(NC(=O)Cc3ccc(-c4ccc(N)nc4)cc3)no2)CCC1.CS(=O)(=O)O [Example 144, 5-(4-(2-((5-(1-methylcyclobutyl)isoxazol-3-yl)amino)-2-oxoethyl)phenyl)pyridin-2-aminium methanesulfonate] | ≤ 1 nM | ≤ 1 nM | B (0.1<B≦0.2 nM) | ≤ 10 nM | ≤ 1 nM
CS(=O)(=O)O.Cc1cc(-c2ccc(CC(=O)Nc3cc(C4(C)COC4)on3)cc2)cnc1N [Example 145, 3-methyl-5-(4-(2-((5-(3-methyloxetan-3-yl)isoxazol-3-yl)amino)-2-oxoethyl)phenyl)pyridin-2-aminium methanesulfonate] | 10 to 100 nM | 1 to 10 nM | A (A≦0.1) | ≤ 10 nM | ≤ 1 nM
CC1(c2cc(NC(=O)Cc3ccc(-c4cnc(N)c(F)c4)cc3)no2)COC1.CS(=O)(=O)O [Example 146, 3-fluoro-5-(4-(2-((5-(3-methyloxetan-3-yl)isoxazol-3-yl)amino)-2-oxoethyl)phenyl)pyridin-2-aminium methanesulfonate] | 1 to 10 nM | ≤ 1 nM | A (A≦0.1) | ≤ 10 nM | ≤ 1 nM
